Data from ChEMBL document CHEMBL3045770, “Design and synthesis of some thieno[2,3-c]pyridazine derivatives of expected anticancer activity” (2013).

Key:
Format in all cases: functional
SNB-75 = test: Cytotoxicity against Homo sapiens (human) SNB75 assessed as cell growth at 10 uM after 48 hr by SRB assay relative to control; conditions: SNB-75, 48 h, read-out: Activity
SF-539 = test: Cytotoxicity against Homo sapiens (human) SF539 assessed as cell growth at 10 uM after 48 hr by SRB assay relative to control; conditions: SF-539, 48 h, read-out: Activity
SF-268 = test: Cytotoxicity against Homo sapiens (human) SF268 assessed as cell growth at 10 uM after 48 hr by SRB assay relative to control; conditions: SF-268, 48 h, read-out: Activity
SW-620 [1] = test: Cytotoxicity against Homo sapiens (human) SW620 assessed as cell growth at 10 uM after 48 hr by SRB assay relative to control; conditions: SW-620, 48 h, read-out: Activity
HCT-15 = test: Cytotoxicity against Homo sapiens (human) HCT15 assessed as cell growth at 10 uM after 48 hr by SRB assay relative to control; conditions: HCT-15, 48 h, read-out: Activity
COLO 205 = test: Cytotoxicity against Homo sapiens (human) COLO205 assessed as cell growth at 10 uM after 48 hr by SRB assay relative to control; conditions: COLO 205, 48 h, read-out: Activity
HOP-92 = test: Cytotoxicity against Homo sapiens (human) HOP92 assessed as cell growth at 10 uM after 48 hr by SRB assay relative to control; conditions: HOP-92, 48 h, read-out: Activity
SR [2] = test: Cytotoxicity against Homo sapiens (human) SR assessed as cell growth at 10 uM after 48 hr by SRB assay relative to control; conditions: read-out: Activity
RPMI-8226 = test: Cytotoxicity against Homo sapiens (human) RPMI8226 assessed as cell growth at 10 uM after 48 hr by SRB assay relative to control; conditions: RPMI-8226, 48 h, read-out: Activity
NCI-H322M = test: Cytotoxicity against Homo sapiens (human) NCI-H322M assessed as cell growth at 10 uM after 48 hr by SRB assay relative to control; conditions: read-out: Activity
RXF 393 = test: Cytotoxicity against Homo sapiens (human) RXF393 assessed as cell growth at 10 uM after 48 hr by SRB assay relative to control; conditions: RXF 393, 48 h, read-out: Activity
ACHN = test: Cytotoxicity against Homo sapiens (human) ACHN assessed as cell growth at 10 uM after 48 hr by SRB assay relative to control; conditions: read-out: Activity
Malme-3M = test: Cytotoxicity against Homo sapiens (human) MALME-3M assessed as cell growth at 10 uM after 48 hr by SRB assay relative to control; conditions: read-out: Activity
OVCAR-8 = test: Cytotoxicity against Homo sapiens (human) OVCAR8 assessed as cell growth at 10 uM after 48 hr by SRB assay relative to control; conditions: OVCAR-8, 48 h, read-out: Activity
UACC-257 = test: Cytotoxicity against Homo sapiens (human) UACC257 assessed as cell growth at 10 uM after 48 hr by SRB assay relative to control; conditions: UACC-257, 48 h, read-out: Activity
SK-MEL-2 = test: Cytotoxicity against Homo sapiens (human) SK-MEL-2 assessed as cell growth at 10 uM after 48 hr by SRB assay relative to control; conditions: SK-MEL-2, 48 h, read-out: Activity
MDA-MB-468 = test: Cytotoxicity against Homo sapiens (human) MDA-MB-468 assessed as cell growth at 10 uM after 48 hr by SRB assay relative to control; conditions: MDA-MB-468, 48 h, read-out: Activity
T47D = test: Cytotoxicity against Homo sapiens (human) T47D assessed as cell growth at 10 uM after 48 hr by SRB assay relative to control; conditions: read-out: Activity
MDA-MB-231 [3] = test: Cytotoxicity against Homo sapiens (human) MDA-MB-231 assessed as cell growth at 10 uM after 48 hr by SRB assay relative to control; conditions: MDA-MB-231, 48 h, read-out: Activity
TK-10 = test: Cytotoxicity against Homo sapiens (human) TK10 assessed as cell growth at 10 uM after 48 hr by SRB assay relative to control; conditions: TK-10, 48 h, read-out: Activity
OVCAR-5 = test: Cytotoxicity against Homo sapiens (human) OVCAR5 cells after 48 hr by SRB assay; conditions: OVCAR-5, 48 h
SK-MEL-28 = test: Cytotoxicity against Homo sapiens (human) SK-MEL-28 cells after 48 hr by SRB assay; conditions: SK-MEL-28, 48 h
SF-295 = test: Cytotoxicity against Homo sapiens (human) SF295 cells after 48 hr by SRB assay; conditions: SF-295, 48 h
SW-620 [4] = test: Cytotoxicity against Homo sapiens (human) SW620 cells after 48 hr by SRB assay; conditions: SW-620, 48 h
HT-29 = test: Cytotoxicity against Homo sapiens (human) HT-29 cells after 48 hr by SRB assay; conditions: HT-29, 48 h
MDA-MB-231 [5] = test: Cytotoxicity against Homo sapiens (human) MDA-MB-231 cells after 48 hr by SRB assay; conditions: MDA-MB-231, 48 h
UO-31 [6] = test: Cytotoxicity against Homo sapiens (human) UO31 cells after 48 hr by SRB assay; conditions: UO-31, 48 h
786-0 = test: Cytotoxicity against Homo sapiens (human) 786-0 cells after 48 hr by SRB assay; conditions: 786-0, 48 h
[7] = Cytotoxicity against Homo sapiens (human) NCI-ADR-RES cells after 48 hr by SRB assay
A549 = test: Cytotoxicity against Homo sapiens (human) A549 cells after 48 hr by SRB assay; conditions: A549, 48 h
SR [8] = test: Cytotoxicity against Homo sapiens (human) SR cells after 48 hr by SRB assay
CCRF-CEM = test: Cytotoxicity against Homo sapiens (human) CCRF-CEM cells after 48 hr by SRB assay
U-251 = test: Cytotoxicity against Homo sapiens (human) U251 assessed as cell growth at 10 uM after 48 hr by SRB assay relative to control; conditions: U-251, 48 h, read-out: Activity
UO-31 [9] = test: Cytotoxicity against Homo sapiens (human) UO31 assessed as cell growth at 10 uM after 48 hr by SRB assay relative to control; conditions: UO-31, 48 h, read-out: Activity
[10] = read-out: LC50 (the source's name)

Oc1c(-c2nnc(-c3ccccc3)o2)sc2nnc(-c3ccccc3)c(-c3ccccc3)c12
growth at 10 µM (SNB-75): 84.4%
growth at 10 µM (SF-539): 68.5%
growth at 10 µM (SF-268): 85.5%
growth at 10 µM (SW-620 [1]): 64.4%
growth at 10 µM (HCT-15): 36.6%
growth at 10 µM (COLO 205): 102%
growth at 10 µM (HOP-92): 81.7%
growth at 10 µM (SR [2]): 46.8%
growth at 10 µM (RPMI-8226): 64.8%
growth at 10 µM (NCI-H322M): 42.5%
growth at 10 µM (RXF 393): 85.6%
growth at 10 µM (ACHN): 67%
growth at 10 µM (Malme-3M): 83.5%
growth at 10 µM (OVCAR-8): 66.8%
growth at 10 µM (UACC-257): 99.8%
growth at 10 µM (SK-MEL-2): 106%
growth at 10 µM (MDA-MB-468): 64.7%
growth at 10 µM (T47D): 81.1%
growth at 10 µM (MDA-MB-231 [3]): 89.2%
growth at 10 µM (TK-10): 90.6%

Oc1c(-c2nnc(-c3ccc(Cl)cc3)o2)sc2nnc(-c3ccccc3)c(-c3ccccc3)c12
growth at 10 µM (SNB-75): 62.8%
growth at 10 µM (SF-539): 55%
growth at 10 µM (SF-268): 55.2%
growth at 10 µM (SW-620 [1]): 35.6%
growth at 10 µM (HCT-15): 32%
growth at 10 µM (COLO 205): 67.4%
growth at 10 µM (HOP-92): 54.5%
growth at 10 µM (SR [2]): 35.1%
growth at 10 µM (RPMI-8226): 40.4%
GI50 (OVCAR-5): 2.18 µM
TGI (OVCAR-5): 18.3 µM
CC50 (OVCAR-5; [10]): 0.0183 µM
GI50 (SK-MEL-28): 1.14 µM
TGI (SK-MEL-28): 18.3 µM
CC50 (SK-MEL-28; [10]): 0.0183 µM
GI50 (SF-295): 3.28 µM
TGI (SF-295): 8.15 µM
GI50 (SW-620 [4]): 4.56 µM
TGI (SW-620 [4]): 6.61 µM
GI50 (HT-29): 4.56 µM
TGI (HT-29): 9.1 µM
CC50 (HT-29; [10]): 0.0183 µM
GI50 (MDA-MB-231 [5]): 4.56 µM
TGI (MDA-MB-231 [5]): 12.3 µM
CC50 (MDA-MB-231 [5]; [10]): 0.0183 µM
GI50 (UO-31 [6]): 3.62 µM
TGI (UO-31 [6]): 6.22 µM
GI50 (786-0): 5.86 µM
TGI (786-0): 18.3 µM
GI50 [7]: 2.58 µM
TGI [7]: 18.3 µM
growth at 10 µM (RXF 393): 72.3%
growth at 10 µM (ACHN): 54%
GI50 (A549): 4.65 µM
TGI (A549): 14.8 µM
CC50 (A549; [10]): 0.0183 µM
GI50 (SR [8]): 4.52 µM
TGI (SR [8]): 18.3 µM
GI50 (CCRF-CEM): 2.88 µM
TGI (CCRF-CEM): 18.3 µM
growth at 10 µM (OVCAR-8): 46.1%
growth at 10 µM (UACC-257): 85%
growth at 10 µM (SK-MEL-2): 87.1%
growth at 10 µM (U-251): 32.6%
growth at 10 µM (MDA-MB-468): 44.6%
growth at 10 µM (T47D): 53%
growth at 10 µM (MDA-MB-231 [3]): 77.9%
growth at 10 µM (TK-10): 59%

CC(=O)Oc1c(C2=NN(C(C)=O)C(c3ccccc3[N+](=O)[O-])O2)sc2nnc(-c3ccccc3)c(-c3ccccc3)c12 (stereo not given)
growth at 10 µM (SNB-75): 76.3%
growth at 10 µM (SF-539): 107%
growth at 10 µM (SF-268): 85.6%
growth at 10 µM (SW-620 [1]): 82.8%
growth at 10 µM (HCT-15): 78%
growth at 10 µM (COLO 205): 108%
growth at 10 µM (HOP-92): 72.3%
growth at 10 µM (SR [2]): 49%
growth at 10 µM (RPMI-8226): 57.4%
growth at 10 µM (RXF 393): 93.5%
growth at 10 µM (ACHN): 86.8%
growth at 10 µM (UO-31 [9]): 78.9%
growth at 10 µM (Malme-3M): 93.2%
growth at 10 µM (OVCAR-8): 90.1%
growth at 10 µM (UACC-257): 101%
growth at 10 µM (SK-MEL-2): 101%
growth at 10 µM (U-251): 80.5%
growth at 10 µM (MDA-MB-468): 86.5%
growth at 10 µM (T47D): 97.5%
growth at 10 µM (MDA-MB-231 [3]): 89.6%
growth at 10 µM (TK-10): 107%

CC(=O)Oc1c(C2=NN(C(C)=O)C(c3ccc(F)cc3)O2)sc2nnc(-c3ccccc3)c(-c3ccccc3)c12 (stereo not given)
growth at 10 µM (SNB-75): 78.1%
growth at 10 µM (SF-539): 104%
growth at 10 µM (SF-268): 89.6%
growth at 10 µM (SW-620 [1]): 97.4%
growth at 10 µM (HCT-15): 61.1%
growth at 10 µM (COLO 205): 117%
growth at 10 µM (HOP-92): 46.2%
growth at 10 µM (SR [2]): 79.3%
growth at 10 µM (RPMI-8226): 71.3%
growth at 10 µM (NCI-H322M): 85.7%
growth at 10 µM (RXF 393): 88%
growth at 10 µM (ACHN): 72%
growth at 10 µM (UO-31 [9]): 83.3%
growth at 10 µM (OVCAR-8): 101%
growth at 10 µM (UACC-257): 113%
growth at 10 µM (SK-MEL-2): 99.9%
growth at 10 µM (U-251): 105%
growth at 10 µM (MDA-MB-468): 84%
growth at 10 µM (T47D): 90%
growth at 10 µM (MDA-MB-231 [3]): 85.9%
growth at 10 µM (TK-10): 94.1%

CNc1nnc(-c2sc3nnc(-c4ccccc4)c(-c4ccccc4)c3c2O)s1
growth at 10 µM (SNB-75): 87.9%
growth at 10 µM (SF-539): 109%
growth at 10 µM (SF-268): 106%
growth at 10 µM (SW-620 [1]): 105%
growth at 10 µM (HCT-15): 98.9%
growth at 10 µM (COLO 205): 131%
growth at 10 µM (HOP-92): 116%
growth at 10 µM (SR [2]): 78.2%
growth at 10 µM (RPMI-8226): 113%
growth at 10 µM (NCI-H322M): 106%
growth at 10 µM (RXF 393): 103%
growth at 10 µM (ACHN): 107%
growth at 10 µM (Malme-3M): 111%
growth at 10 µM (OVCAR-8): 104%
growth at 10 µM (UACC-257): 94.5%
growth at 10 µM (SK-MEL-2): 126%
growth at 10 µM (MDA-MB-468): 92.6%
growth at 10 µM (T47D): 97.6%
growth at 10 µM (MDA-MB-231 [3]): 104%
growth at 10 µM (TK-10): 108%
